Results on 44 compounds are retold here after ChEMBL document CHEMBL5729561, “Compounds and uses thereof” (2023).

In general, IC50 refers to the concentration needed to halve the response being measured. Low readings indicate greater potency, high ones weaker potency.

A short description of the assay: On day 0 cells were seeded in 30 μL media into each well of 384-well cell culture plates. The seeding density was 8000 cells/well. On day 1, cells were treated with 30 nL DMSO or 30 nL of 3-fold serially DMSO-diluted compounds (10 points in duplicates with 1 μM as final top dose). Subsequently plates were incubated for 6 hours in a standard tissue culture incubator and equilibrated at room temperature for 15 minutes. Nanoluciferase activity was measured by adding 15 μL of freshly prepared Nano-Glo Luciferase Assay Reagent (Promega N1130), shaking the plates for 10 minutes and reading the bioluminescence using an EnVision reader. It counts as cell-based.
Turning to `COc1cc(-c2cn(C)c(=O)c3cnccc23)cc(OC)c1CN1CC(NC(=O)CCCCCOc2cccc3c2C(=O)N(C2CCC(=O)NC2=O)C3=O)C1` (centres undefined), the concentration for half-maximal inhibition (IC50) entry was “in the range around 0.055 µM”.

With `COc1cc(-c2cn(C)c(=O)c3cnccc23)cc(OC)c1CN1CC(C(=O)NCCS(=O)(=O)CCNc2cccc3c2C(=O)N(C2CCC(=O)NC2=O)C3=O)C1` (centres undefined), the IC50 entry is “in the range around 0.055 µM”.

Take `COc1cc(-c2cn(C)c(=O)c3cnccc23)cc(OC)c1CN(C)Cc1cn(CCOCCOc2ccc3c(c2)C(=O)N(C2CCC(=O)NC2=O)C3=O)nn1` (centres undefined): the concentration for half-maximal inhibition (IC50) entry is “in the range around 0.55 µM”.

`COc1cc(-c2cn(C)c(=O)c3cnccc23)cc(OC)c1CN1CCN(C(=O)CCCCOc2cccc3c2C(=O)N(C2CCC(=O)NC2=O)C3=O)CC1` (centres undefined) displayed an IC50 below 0.01 µM.

In turn, `COc1cc(-c2cn(C)c(=O)c3cnccc23)cc(OC)c1CN(C)CC(=O)NCCCCN1CCOC2(CCN(c3ccc4c(c3)C(=O)N(C3CCC(=O)NC3=O)C4=O)CC2)C1` (centres undefined) had a concentration for half-maximal inhibition (IC50) below 0.01 µM.

For the compound `COc1cc(-c2cn(C)c(=O)c3cnccc23)cc(OC)c1CNCCOCC(=O)N1CC(COc2ccc3c(c2)C(=O)N(C2CCC(=O)NC2=O)C3=O)C1` (centres undefined), the IC50 result was “in the range around 0.55 µM”.

Consider `COc1cc(-c2cn(C)c(=O)c3cnccc23)cc(OC)c1CN(C)CCc1cn(CCCCOc2ccc3c(c2)C(=O)N(C2CCC(=O)NC2=O)C3=O)nn1` (centres undefined), for which the IC50 entry is “in the range around 0.055 µM”.

The compound `COc1cc(-c2cn(C)c(=O)c3cnccc23)cc(OC)c1CN1CCC2(CC1)CN(C(=O)CCCCOc1cccc3c1C(=O)N(C1CCC(=O)NC1=O)C3=O)CCO2` (centres undefined) yielded a half-inhibitory concentration (IC50) below 0.01 µM.

Regarding `COc1cc(-c2cn(C)c(=O)c3cnccc23)cc(OC)c1CN1CCCC(OCc2cn(CCCOc3ccc4c(c3)C(=O)N(C3CCC(=O)NC3=O)C4=O)nn2)C1` (centres undefined), the IC50 result was “in the range around 0.055 µM”.

Take `COc1cc(-c2cn(C)c(=O)c3cc(O)ccc23)cc(OC)c1CN1CCC2(CC1)CN(C(=O)CCCOc1cccc3c1C(=O)N(C1CCC(=O)NC1=O)C3=O)CCO2` (centres undefined): the IC50 result is “in the range around 0.055 µM”.

Regarding `COc1cc(-c2cn(C)c(=O)c3cnccc23)cc(OC)c1CN1CC[C@H]1C(=O)NCCN(C)CCNc1cccc2c1C(=O)N(C1CCC(=O)NC1=O)C2=O` (some centres undefined), the IC50 result was “in the range around 0.55 µM”.

For the compound `COc1cc(-c2cn(C)c(=O)c3cnccc23)cc(OC)c1CN1CCC(OC2CCN(C(=O)CCOCCOc3cccc4c3C(=O)N(C3CCC(=O)NC3=O)C4=O)C2)CC1` (centres undefined), the half-maximal inhibitory concentration (IC50) entry was “in the range around 0.055 µM”.

Regarding `COc1cc(-c2cn(C)c(=O)c3cnccc23)cc(OC)c1CN1CCC2(CC1)CN(C(=O)COc1ccc3c(c1)C(=O)N(C1CCC(=O)NC1=O)C3=O)CCO2` (centres undefined), the concentration for half-maximal inhibition (IC50) result was “in the range around 0.55 µM”.

`COc1cc(-c2cn(C)c(=O)c3cnccc23)cc(OC)c1CN(C)CC(=O)N1CCC(C2CCN(C(=O)COc3cccc4c3C(=O)N(C3CCC(=O)NC3=O)C4=O)CC2)CC1` (centres undefined): the IC50 result was “in the range around 0.055 µM”.

Consider `COc1cc(-c2cn(C)c(=O)c3cnccc23)cc(OC)c1CN1CCC2(C[C@@H]2NC(=O)CCOCCOc2ccc3c(c2)C(=O)N(C2CCC(=O)NC2=O)C3=O)C1` (some centres undefined), for which the IC50 result is “in the range around 0.055 µM”.

On to `COc1cc(-c2cn(C)c(=O)c3cnccc23)cc(OC)c1CN1CCC2(C[C@H]2NC(=O)CCOCCOc2ccc3c(c2)C(=O)N(C2CCC(=O)NC2=O)C3=O)C1` (some centres undefined), for which the IC50 result is “in the range around 0.55 µM”.

Compound `COc1cc(-c2cn(C)c(=O)c3cnccc23)cc(OC)c1CN(C)CCCN1CCC(Oc2ccc3c(c2)C(=O)N(C2CCC(=O)NC2=O)C3=O)CC1` (centres undefined) showed a concentration for half-maximal inhibition (IC50) below 0.01 µM.

`COc1cc(-c2cn(C)c(=O)c3cnccc23)cc(OC)c1CN1CC2(CCC2NC(=O)CCOCCOc2cccc3c2C(=O)N(C2CCC(=O)NC2=O)C3=O)C1` (centres undefined): the half-inhibitory concentration (IC50) was above 1 µM.

With `COc1cc(-c2cn(C)c(=O)c3cnccc23)cc(OC)c1CN1CC(C(=O)NCCCCCCCCNC(=O)COc2cccc3c2C(=O)N(C2CCC(=O)NC2=O)C3=O)C1` (centres undefined), the 50% inhibitory concentration (IC50) result is “in the range around 0.055 µM”.

In the case of `COc1cc(-c2cn(C)c(=O)c3cnccc23)cc(OC)c1CN(C)Cc1cn(CCCCOc2ccc3c(c2)C(=O)N(C2CCC(=O)NC2=O)C3=O)nn1` (centres undefined), the IC50 entry was “in the range around 0.055 µM”.

Turning to `COc1cc(-c2cn(C)c(=O)c3cnccc23)cc(OC)c1CN1CCCC(OCc2cn(CCOc3ccc4c(c3)C(=O)N(C3CCC(=O)NC3=O)C4=O)nn2)C1` (centres undefined), the half-inhibitory concentration (IC50) entry is “in the range around 0.055 µM”.

For `COc1cc(-c2cn(C)c(=O)c3cnccc23)cc(OC)c1CN1CCC2(CCN(C(=O)CCOCCOc3cccc4c3C(=O)N(C3CCC(=O)NC3=O)C4=O)C2)C1` (centres undefined), the half-maximal inhibitory concentration (IC50) is below 0.01 µM.

For `COc1cc(-c2cn(C)c(=O)c3cnccc23)cc(OC)c1CN1CCC12CN(C(=O)CCOCCOc1cccc3c1C(=O)N(C1CCC(=O)NC1=O)C3=O)C2` (centres undefined), the IC50 result is “in the range around 0.55 µM”.

`COc1cc(-c2cn(C)c(=O)c3cnccc23)cc(OC)c1CN1CC(C(=O)N2CCC(C3CCN(C(=O)COc4cccc5c4C(=O)N(C4CCC(=O)NC4=O)C5=O)CC3)CC2)C1` (centres undefined) came in with a 50% inhibitory concentration (IC50) below 0.01 µM.

Regarding `COc1cc(-c2cn(C)c(=O)c3cnccc23)cc(OC)c1CN(C)CCc1cn(CCCOc2ccc3c(c2)C(=O)N(C2CCC(=O)NC2=O)C3O)nn1` (centres undefined), the half-maximal inhibitory concentration (IC50) result was “in the range around 0.55 µM”.

For `COc1cc(-c2cn(C)c(=O)c3cnccc23)cc(OC)c1CN1CC2(C1)CN(C(=O)CCCOc1cccc3c1C(=O)N(C1CCC(=O)NC1=O)C3=O)C2` (centres undefined), the IC50 entry was “in the range around 0.055 µM”.

As for `COc1cc(-c2cn(C)c(=O)c3cnccc23)cc(OC)c1CN1CC2(C1)CN(C(=O)COc1cccc3c1C(=O)N(C1CCC(=O)NC1=O)C3=O)C2` (centres undefined), the IC50 result was “in the range around 0.55 µM”.

Compound `COc1cc(-c2cn(C)c(=O)c3cnccc23)cc(OC)c1CN1CC[C@H]1C(=O)NCCN(C)CCNC(=O)COc1ccc2c(c1)C(=O)N(C1CCC(=O)NC1=O)C2=O` (some centres undefined) displayed a concentration for half-maximal inhibition (IC50) above 1 µM.

Regarding `COc1cc(-c2cn(C)c(=O)c3cnccc23)cc(OC)c1CN1CCC(OCc2cn(CCCCOc3ccc4c(c3)C(=O)N(C3CCC(=O)NC3=O)C4=O)nn2)C1` (centres undefined), the half-maximal inhibitory concentration (IC50) result is “in the range around 0.055 µM”.

`COc1cc(-c2cn(C)c(=O)c3cnccc23)cc(OC)c1CN1CCC2CCN(C(=O)CCOCCOc3ccc4c(c3)C(=O)N(C3CCC(=O)NC3=O)C4=O)CC21` (centres undefined) gave a half-maximal inhibitory concentration (IC50) below 0.01 µM.

For the compound `COc1cc(-c2cn(C)c(=O)c3cnccc23)cc(OC)c1CN1CC2(CCC2NC(=O)CCOCCOc2ccc3c(c2)C(=O)N(C2CCC(=O)NC2=O)C3=O)C1` (centres undefined), the IC50 entry is “in the range around 0.55 µM”.

Turning to `COc1cc(-c2cn(C)c(=O)c3cnccc23)cc(OC)c1CN1CC(C(=O)NCCCCCNc2cccc3c2C(=O)N(C2CCC(=O)NC2=O)C3=O)C1` (centres undefined), the IC50 is below 0.01 µM.

Compound `COc1cc(-c2cn(C)c(=O)c3cnccc23)cc(OC)c1CN1CCC(COC2CCN(C(=O)CCOCCOc3ccc4c(c3)C(=O)N(C3CCC(=O)NC3=O)C4=O)C2)CC1` (centres undefined) displayed a 50% inhibitory concentration (IC50) below 0.01 µM.

Regarding `COc1cc(-c2cn(C)c(=O)c3cnccc23)cc(OC)c1CN1CCC2(CC1)CN(C(=O)CCOCCOc1ccc3c(c1)C(=O)N(C1CCC(=O)NC1=O)C3=O)C2` (centres undefined), the 50% inhibitory concentration (IC50) result was “in the range around 0.055 µM”.

As to `COc1cc(-c2cn(C)c(=O)c3cnccc23)cc(OC)c1CN1CCC12CCN(C(=O)CCOCCOc1ccc3c(c1)C(=O)N(C1CCC(=O)NC1=O)C3=O)C2` (centres undefined), the IC50 entry is “in the range around 0.55 µM”.

Turning to `COc1cc(-c2cn(C)c(=O)c3cnccc23)cc(OC)c1CN1CC2(CCN(C(=O)CCOCCOc3cccc4c3C(=O)N(C3CCC(=O)NC3=O)C4=O)CC2)C1` (centres undefined), the IC50 entry was “in the range around 0.55 µM”.

Take `COc1cc(-c2cn(C)c(=O)c3cnccc23)cc(OC)c1CN1CC(OCc2cn(CCCCCOc3ccc4c(c3)C(=O)N(C3CCC(=O)NC3=O)C4=O)nn2)C1` (centres undefined): the half-maximal inhibitory concentration (IC50) entry is “in the range around 0.055 µM”.

In the case of `COc1cc(-c2cn(C)c(=O)c3cnccc23)cc(OC)c1CN1CC2(CCN(C(=O)CCOCCOc3ccc4c(c3)C(=O)N(C3CCC(=O)NC3=O)C4=O)CC2)C1` (centres undefined), the IC50 result is “in the range around 0.055 µM”.

As to `COc1cc(-c2cn(C)c(=O)c3cnccc23)cc(OC)c1CN1CCC(OCc2cn(CCCOc3ccc4c(c3)C(=O)N(C3CCC(=O)NC3=O)C4=O)nn2)C1` (centres undefined), the concentration for half-maximal inhibition (IC50) result was “in the range around 0.55 µM”.

As for `COc1cc(-c2cn(C)c(=O)c3cnccc23)cc(OC)c1CN1CC2CN(C(=O)CCOCCOc3ccc4c(c3)C(=O)N(C3CCC(=O)NC3=O)C4=O)CCC21` (centres undefined), the IC50 is below 0.01 µM.

As for `COc1cc(-c2cn(C)c(=O)c3cnccc23)cc(OC)c1CN(C)C1CCC12CCN(C(=O)CCOCCOc1ccc3c(c1)C(=O)N(C1CCC(=O)NC1=O)C3=O)CC2` (centres undefined), the half-maximal inhibitory concentration (IC50) is below 0.01 µM.

For `COc1cc(-c2cn(C)c(=O)c3cnccc23)cc(OC)c1CN(C)CC12CC(C(=O)NCCOCCOCCNc3cccc4c3C(=O)N(C3CCC(=O)NC3=O)C4=O)(C1)C2` (centres undefined), the IC50 entry was “in the range around 0.55 µM”.

Consider `COc1cc(-c2cn(C)c(=O)c3cnccc23)cc(OC)c1CN1CC(OCc2cn(CCCCOc3ccc4c(c3)C(=O)N(C3CCC(=O)NC3=O)C4=O)nn2)C1` (centres undefined), for which the IC50 result is “in the range around 0.055 µM”.

Regarding `COc1cc(-c2cn(C)c(=O)c3cnccc23)cc(OC)c1CN1CCC(OC2CCN(C(=O)CCOCCOc3ccc4c(c3)C(=O)N(C3CCC(=O)NC3=O)C4=O)CC2)CC1` (centres undefined), the IC50 was below 0.01 µM.
